The results in this text go back to patent US20220306659A1, “COMPOUND INHIBITING AND INDUCING DEGRADATION OF EGFR AND ALK” (BEIJING TIDE PHARMACEUTICAL CO., LTD., priority 2019, published 2022).

What all share (assay type): cell-based
Experiment [1] concerns the target T1, Ba/F3(EML4-ALK) cells (Homo sapiens, UniProt Q9UM73).
T1 construct: fused on or other part: Q9HC35 (Echinoderm microtubule-associated protein-like 4)
Nature of the experiment: Assay of activity on Ba/F3(EML4-ALK) cells (CTG, 72 h). As to conditions: read-out: IC50 (nM) Ba/F3(EML4-ALK). The method, then:
Assay of activity on Ba/F3(EML4-ALK) cells
(1) Ba/F3(EML4-ALK) cells were cultured according to the requirements of ATCC, incubated in an incubator at 37° C. and 5% CO2, and analyzed by index; cells with viability of >90% can be used in the assay, and cells were seeded in a 384-well plate (PerkinElmer, 6007680) with 700 cells/well, 30 μl/well.
(2) A compound stock solution was prepared, and diluted 3× to obtain a compound dilution; 30 nL of the serial dilution was added to a 384-well plate (784075, Greiner) by Echo 550, and cells were incubated in an incubator at 37° C. and 5% CO2 for 72 h.
(3) 30 μL of CTG was added to each well, and the 384-well plate was shaken on a Plate shaker (QILINBEIER, QB-9002); the 384-well plate was incubated in the dark at 37° C. and 5% CO2 for 30 min, and the chemiluminescence value was read by Envision (PerkinElmer, EnVision 2104).
The percent inhibition rate (% inhibition) was calculated by the formula below
LUMcmpd: Luminescence value of assay compound.
LUMpositive: Average LUM value of positive drug at a concentration of 10 μM.
LUM^vehicle: Average LUM value of negative control group without drug treatment.
The nonlinear regression curve (dose response-variable slope) between the value of inhibition rate (%) and the logarithm of compound concentration was fitted with graphpad prism 8.0, the effect dose curve of compound was drawn, and the IC50 value was calculated.
Y=Bottom+(Top−Bottom)/(1+10^((LogIC50−X)*HillSlope))
X-axis: logarithm of compound concentration; Y axis: inhibition rate (% inhibition).

For experiment [2], the target named is Ba/F3(EGFR^Del19/T790M/C797S) cells (Homo sapiens, UniProt P00533, DEL746-750/T790M/C797S, cells depend on it). Nature of the experiment: Assay of activity on Ba/F3 cells (CTG, 72 h). As to conditions: read-out: IC50 (nM) Ba/F3 (EGFR^Del19/T790M/C797S). The essentials:
(§1)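 Ba/F3 cells dependent on each EGFR triple mutant were exposed to 3-fold compound dilutions for 72 h at 37° C, 5% CO2, with CellTiter-Glo luminescence as the read-out.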

For experiment [3], the target named is Ba/F3(EGFR^L858R/T790M/C797S) cells (Homo sapiens, UniProt P00533, T790M/C797S/L858R, cells depend on it). Nature of the experiment: Assay of activity on Ba/F3 cells (CTG, 72 h). As to conditions: read-out: IC50 (nM) Ba/F3 (EGFR^L858R/T790M/C797S). Summed up: as §1
Ba/F3(EGFR^L858R/T790M/C797S) cells, sequence (P00533 whole entry T790M/C797S/L858R): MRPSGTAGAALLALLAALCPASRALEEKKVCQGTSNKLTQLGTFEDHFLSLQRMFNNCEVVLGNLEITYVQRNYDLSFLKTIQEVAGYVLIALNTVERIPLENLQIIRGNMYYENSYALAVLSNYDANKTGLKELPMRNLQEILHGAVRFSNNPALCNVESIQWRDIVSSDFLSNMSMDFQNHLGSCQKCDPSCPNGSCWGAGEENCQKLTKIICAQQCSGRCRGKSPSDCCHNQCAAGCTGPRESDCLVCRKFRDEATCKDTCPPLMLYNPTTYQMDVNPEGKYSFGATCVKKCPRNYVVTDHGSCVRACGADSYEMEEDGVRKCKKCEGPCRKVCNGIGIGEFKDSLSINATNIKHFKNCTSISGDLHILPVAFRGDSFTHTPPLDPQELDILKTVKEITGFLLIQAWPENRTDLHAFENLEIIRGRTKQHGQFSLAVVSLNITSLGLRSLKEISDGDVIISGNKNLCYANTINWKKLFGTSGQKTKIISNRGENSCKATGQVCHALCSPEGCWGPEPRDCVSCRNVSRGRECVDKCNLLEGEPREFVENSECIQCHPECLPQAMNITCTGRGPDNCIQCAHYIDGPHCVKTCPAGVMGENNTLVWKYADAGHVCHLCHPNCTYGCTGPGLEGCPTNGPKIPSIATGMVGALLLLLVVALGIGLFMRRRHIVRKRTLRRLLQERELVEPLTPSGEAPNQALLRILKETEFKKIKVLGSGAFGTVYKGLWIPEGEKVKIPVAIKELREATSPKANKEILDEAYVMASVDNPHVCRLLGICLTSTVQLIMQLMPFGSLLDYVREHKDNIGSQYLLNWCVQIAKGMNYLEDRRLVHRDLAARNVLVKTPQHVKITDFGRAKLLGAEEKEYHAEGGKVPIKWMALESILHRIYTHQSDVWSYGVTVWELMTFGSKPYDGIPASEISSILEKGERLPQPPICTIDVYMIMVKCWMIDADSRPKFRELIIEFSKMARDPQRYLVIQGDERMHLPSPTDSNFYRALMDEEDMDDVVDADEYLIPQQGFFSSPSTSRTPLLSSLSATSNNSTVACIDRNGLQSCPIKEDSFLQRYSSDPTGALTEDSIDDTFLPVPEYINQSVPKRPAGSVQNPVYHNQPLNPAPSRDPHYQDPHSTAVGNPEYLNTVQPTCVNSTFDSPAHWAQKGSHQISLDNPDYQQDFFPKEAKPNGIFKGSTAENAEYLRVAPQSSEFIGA

Ba/F3(EGFR^Del19/T790M/C797S) cells, sequence (P00533 with tags, fused parts or gaps DEL746-750/T790M/C797S): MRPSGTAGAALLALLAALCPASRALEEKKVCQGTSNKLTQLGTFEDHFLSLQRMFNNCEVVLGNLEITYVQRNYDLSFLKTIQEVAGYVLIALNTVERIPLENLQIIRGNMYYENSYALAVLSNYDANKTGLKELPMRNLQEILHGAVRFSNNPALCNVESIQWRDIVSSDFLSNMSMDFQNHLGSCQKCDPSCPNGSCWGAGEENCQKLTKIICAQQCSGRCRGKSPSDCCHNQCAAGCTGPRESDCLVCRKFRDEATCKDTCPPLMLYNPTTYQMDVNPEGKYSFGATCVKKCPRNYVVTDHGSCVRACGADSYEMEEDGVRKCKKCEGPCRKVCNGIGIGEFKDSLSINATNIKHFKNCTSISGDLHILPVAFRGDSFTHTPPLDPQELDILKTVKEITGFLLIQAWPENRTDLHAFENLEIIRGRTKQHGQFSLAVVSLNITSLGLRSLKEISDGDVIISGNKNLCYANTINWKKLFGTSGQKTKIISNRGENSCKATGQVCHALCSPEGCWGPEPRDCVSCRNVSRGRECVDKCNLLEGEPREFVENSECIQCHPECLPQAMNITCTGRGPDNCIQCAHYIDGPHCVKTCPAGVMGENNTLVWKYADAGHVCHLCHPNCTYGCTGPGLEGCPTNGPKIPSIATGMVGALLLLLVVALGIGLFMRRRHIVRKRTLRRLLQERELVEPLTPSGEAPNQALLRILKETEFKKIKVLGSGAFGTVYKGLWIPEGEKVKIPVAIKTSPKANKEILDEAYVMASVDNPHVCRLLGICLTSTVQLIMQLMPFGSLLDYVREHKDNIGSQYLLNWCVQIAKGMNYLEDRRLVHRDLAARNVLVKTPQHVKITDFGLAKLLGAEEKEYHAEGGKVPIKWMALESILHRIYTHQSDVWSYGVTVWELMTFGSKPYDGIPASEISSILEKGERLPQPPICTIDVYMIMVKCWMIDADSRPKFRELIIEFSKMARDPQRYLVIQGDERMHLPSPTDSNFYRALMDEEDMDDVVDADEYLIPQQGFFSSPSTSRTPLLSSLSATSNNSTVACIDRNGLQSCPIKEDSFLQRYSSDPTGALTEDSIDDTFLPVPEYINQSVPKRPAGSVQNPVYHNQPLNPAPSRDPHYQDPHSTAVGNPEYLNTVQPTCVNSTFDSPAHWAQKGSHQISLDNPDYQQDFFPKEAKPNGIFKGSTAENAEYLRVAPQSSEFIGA
T1 sequence (Q9UM73 whole entry, change not shown, the tested form may be a part): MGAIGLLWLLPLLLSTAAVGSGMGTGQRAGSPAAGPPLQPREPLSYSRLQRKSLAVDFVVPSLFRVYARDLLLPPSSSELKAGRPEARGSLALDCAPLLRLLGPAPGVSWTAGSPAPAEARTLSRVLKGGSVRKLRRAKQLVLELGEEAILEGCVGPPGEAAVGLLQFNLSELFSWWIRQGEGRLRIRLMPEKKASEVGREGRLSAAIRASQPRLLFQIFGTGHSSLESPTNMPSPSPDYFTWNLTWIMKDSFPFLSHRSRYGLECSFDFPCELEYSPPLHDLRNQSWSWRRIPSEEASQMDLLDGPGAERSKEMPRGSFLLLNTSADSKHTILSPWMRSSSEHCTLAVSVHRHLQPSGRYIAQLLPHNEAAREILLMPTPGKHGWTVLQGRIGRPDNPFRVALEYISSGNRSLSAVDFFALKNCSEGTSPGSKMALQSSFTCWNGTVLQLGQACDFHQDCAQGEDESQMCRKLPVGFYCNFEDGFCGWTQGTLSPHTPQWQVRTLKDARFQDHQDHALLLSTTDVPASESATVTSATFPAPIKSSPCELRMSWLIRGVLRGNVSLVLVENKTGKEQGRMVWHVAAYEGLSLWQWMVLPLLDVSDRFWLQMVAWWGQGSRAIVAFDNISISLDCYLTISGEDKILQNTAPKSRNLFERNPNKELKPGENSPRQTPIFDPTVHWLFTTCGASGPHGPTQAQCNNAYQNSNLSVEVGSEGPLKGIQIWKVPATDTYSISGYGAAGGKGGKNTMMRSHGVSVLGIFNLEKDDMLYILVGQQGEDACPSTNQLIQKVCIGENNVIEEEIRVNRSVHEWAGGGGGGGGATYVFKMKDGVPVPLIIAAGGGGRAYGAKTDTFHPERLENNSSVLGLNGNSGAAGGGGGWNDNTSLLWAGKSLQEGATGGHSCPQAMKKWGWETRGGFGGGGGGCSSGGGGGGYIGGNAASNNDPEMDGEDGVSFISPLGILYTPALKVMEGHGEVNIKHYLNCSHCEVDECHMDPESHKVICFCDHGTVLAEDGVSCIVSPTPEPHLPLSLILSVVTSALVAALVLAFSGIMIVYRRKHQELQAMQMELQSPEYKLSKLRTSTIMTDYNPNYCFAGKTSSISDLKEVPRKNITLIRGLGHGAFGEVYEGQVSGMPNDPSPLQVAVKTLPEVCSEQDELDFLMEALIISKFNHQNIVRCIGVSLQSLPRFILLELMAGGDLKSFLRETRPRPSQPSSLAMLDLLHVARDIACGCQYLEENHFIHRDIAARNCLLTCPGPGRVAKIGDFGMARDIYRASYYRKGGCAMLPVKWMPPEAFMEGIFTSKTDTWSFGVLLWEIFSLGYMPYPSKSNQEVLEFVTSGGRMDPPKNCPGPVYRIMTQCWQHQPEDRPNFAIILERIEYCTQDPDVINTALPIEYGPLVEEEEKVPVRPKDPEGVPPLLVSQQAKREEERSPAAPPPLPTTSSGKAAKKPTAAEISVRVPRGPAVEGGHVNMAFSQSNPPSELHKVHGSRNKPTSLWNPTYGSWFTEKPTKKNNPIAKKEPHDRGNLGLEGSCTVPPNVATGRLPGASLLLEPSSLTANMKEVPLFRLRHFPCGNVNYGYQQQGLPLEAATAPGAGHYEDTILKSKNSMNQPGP

Consider `COc1cc(N2CCC3(CCN(CCCCCCCOc4cccc5c4C(=O)N(C4CCC(=O)NC4=O)C5=O)CC3)CC2)c(C)cc1Nc1ncc(Br)c(Nc2ccc3nccnc3c2P(C)(C)=O)n1` (centres unmarked) [Compound C47, 4-((7-(9-(4-((5-bromo-4-((5-(dimethylphosphoryl)quinoxalin-6-yl)amino)pyrimidin-2-yl)amino)-5-methoxy-2-methylphenyl)-3,9-diazaspiro[5.5]undecan-3-yl)heptyl)oxy)-2-(2,6-dioxopiperidin-3-yl)isoindoline-1,3-dione], for which the GI50 in experiment [1], in experiment [2] and in experiment [3] was 101 to 200 nM each time.

Regarding `COc1cc(N2CCC3(CCN(CCCCCCC#Cc4cccc5c4CN(C4CCC(=O)NC4=O)C5=O)CC3)CC2)c(C)cc1Nc1ncc(Br)c(Nc2ccc3nccnc3c2P(C)(C)=O)n1` (centres unmarked) [Compound C172, 3-(4-(8-(9-(4-((5-bromo-4-((5-(dimethylphosphoryl)quinoxalin-6-yl)amino)pyrimidin-2-yl)amino)-5-methoxy-2-methylphenyl)-3,9-diazaspiro[5.5]undecan-3-yl)oct-1-yn-1-yl)-1-oxoisoindolin-2-yl)piperidine-2,6-dione], the GI50 in experiment [1] and in experiment [2] was 1 to 100 nM throughout.

For `COc1cc(N2CCC3(CCN(CCCCCCCC#Cc4cccc5c4CN(C4CCC(=O)NC4=O)C5=O)CC3)CC2)c(C)cc1Nc1ncc(Br)c(Nc2ccc3nccnc3c2P(C)(C)=O)n1` (centres unmarked) [Compound C173, 3-(4-(9-(9-(4-((5-bromo-4-((5-(dimethylphosphoryl)quinoxalin-6-yl)amino)pyrimidin-2-yl)amino)-5-methoxy-2-methylphenyl)-3,9-diazaspiro[5.5]undecan-3-yl)non-1-yn-1-yl)-1-oxoisoindolin-2-yl)piperidine-2,6-dione], the GI50 in experiment [1] and in experiment [2] was 1 to 100 nM throughout.

As for `COc1cc(N2CCC(N3CCN(CCCOCC#Cc4cccc5c4CN(C4CCC(=O)NC4=O)C5=O)CC3)CC2)ccc1Nc1ncc(Cl)c(Nc2ccccc2P(C)(C)=O)n1` (centres unmarked) [Compound C181, 3-(4-(3-(3-(4-(1-(4-((5-chloro-4-((2-(dimethylphosphoryl)phenyl)amino)pyrimidin-2-yl)amino)-3-methoxyphenyl)piperidin-4-yl)piperazin-1-yl)propoxy)prop-1-yn-1-yl)-1-oxoisoindolin-2-yl)piperidine-2,6-dione], the GI50 in experiment [1] and in experiment [2] was 1 to 100 nM in each case.

Consider `COc1cc(N2CCC(N3CCN(CCCCOCC#Cc4cccc5c4CN(C4CCC(=O)NC4=O)C5=O)CC3)CC2)ccc1Nc1ncc(Cl)c(Nc2ccccc2P(C)(C)=O)n1` (centres unmarked) [Compound C182, 3-(4-(3-(4-(4-(1-(4-((5-chloro-4-((2-(dimethylphosphoryl)phenyl)amino)pyrimidin-2-yl)amino)-3-methoxyphenyl)piperidin-4-yl)piperazin-1-yl)butoxy)prop-1-yn-1-yl)-1-oxoisoindolin-2-yl)piperidine-2,6-dione], for which the GI50 in experiment [1] and in experiment [2] was 1 to 100 nM throughout.

`COc1cc(N2CCC(N3CCN(CCOCC#Cc4cc(F)cc5c4CN(C4CCC(=O)NC4=O)C5=O)CC3)CC2)ccc1Nc1ncc(Cl)c(Nc2ccccc2P(C)(C)=O)n1` (centres unmarked) [Compound C184, 3-(4-(3-(2-(4-(1-(4-((5-chloro-4-((2-(dimethylphosphoryl)phenyl)amino)pyrimidin-2-yl)amino)-3-methoxyphenyl)piperidin-4-yl)piperazin-1-yl)ethoxy)prop-1-yn-1-yl)-6-fluoro-1-oxoisoindolin-2-yl)piperidine-2,6-dione]: the GI50 in experiment [1] and in experiment [2] was 1 to 100 nM in each case.

Take `COc1cc(N2CCC(N3CCN(CCCCC#Cc4cccc5c4CN(C4CCC(=O)NC4=O)C5=O)CC3)CC2)c(C)cc1Nc1ncc(Br)c(Nc2ccc3nccnc3c2P(C)(C)=O)n1` (centres unmarked) [Compound C186, 3-(4-(6-(4-(1-(4-((5-bromo-4-((5-(dimethylphosphoryl)quinoxalin-6-yl)amino)pyrimidin-2-yl)amino)-5-methoxy-2-methylphenyl)piperidin-4-yl)piperazin-1-yl)hex-1-yn-1-yl)-1-oxoisoindolin-2-yl)piperidine-2,6-dione]: the GI50 in experiment [1] and in experiment [2] was 1 to 100 nM in each case.

In the case of `COc1cc(N2CCC(N3CCN(CCCCCCCCC#Cc4cccc5c4CN(C4CCC(=O)NC4=O)C5=O)CC3)CC2)c(C)cc1Nc1ncc(Br)c(Nc2ccc3nccnc3c2P(C)(C)=O)n1` (centres unmarked) [Compound C188, 3-(4-(10-(4-(1-(4-((5-bromo-4-((5-(dimethylphosphoryl)quinoxalin-6-yl)amino)pyrimidin-2-yl)amino)-5-methoxy-2-methylphenyl)piperidin-4-yl)piperazin-1-yl)dec-1-yn-1-yl)-1-oxoisoindolin-2-yl)piperidine-2,6-dione], the GI50 was greater than 300 nM in experiment [1] and 1 to 100 nM in experiment [2].

As to `COc1cc(N2CCC3(CCN(CCCCCCCCC#Cc4cccc5c4CN(C4CCC(=O)NC4=O)C5=O)CC3)CC2)c(C)cc1Nc1ncc(Br)c(Nc2ccc3nccnc3c2P(C)(C)=O)n1` (centres unmarked) [Compound C189, 3-(4-(10-(9-(4-((5-bromo-4-((5-(dimethylphosphoryl)quinoxalin-6-yl)amino)pyrimidin-2-yl)amino)-5-methoxy-2-methylphenyl)-3,9-diazaspiro[5.5]undecan-3-yl)dec-1-yn-1-yl)-1-oxoisoindolin-2-yl)piperidine-2,6-dione], the results for the GI50 in experiment [1] and in experiment [2] were 101 to 200 nM and 1 to 100 nM, respectively.

For the compound `COc1cc(N2CCC3(CCN(CCCCCC#Cc4ccc5c(c4)CN(C4CCC(=O)NC4=O)C5=O)CC3)CC2)c(C)cc1Nc1ncc(Br)c(Nc2ccc3nccnc3c2P(C)(C)=O)n1` (centres unmarked) [Compound C191, 3-(5-(7-(9-(4-((5-bromo-4-((5-(dimethylphosphoryl)quinoxalin-6-yl)amino)pyrimidin-2-yl)amino)-5-methoxy-2-methylphenyl)-3,9-diazaspiro[5.5]undecan-3-yl)hept-1-yn-1-yl)-1-oxoisoindolin-2-yl)piperidine-2,6-dione], the GI50 in experiment [1] fell in the range of 101 to 200 nM; in experiment [2] it was 1 to 100 nM.

Turning to `COc1cc(N2CCC(N3CCN(CCCCCCCC#Cc4ccc5c(c4)CN(C4CCC(=O)NC4=O)C5=O)CC3)CC2)ccc1Nc1ncc(Cl)c(Nc2ccccc2P(C)(C)=O)n1` (centres unmarked) [Compound C195, 3-(5-(9-(4-(1-(4-((5-chloro-4-((2-(dimethylphosphoryl)phenyl)amino)pyrimidin-2-yl)amino)-3-methoxyphenyl)piperidin-4-yl)piperazin-1-yl)non-1-yn-1-yl)-1-oxoisoindolin-2-yl)piperidine-2,6-dione], the GI50 in experiment [1] and in experiment [2] was 1 to 100 nM throughout.

`COc1cc(N2CCC(N3CCN(CCCCCCCCC#Cc4ccc5c(c4)CN(C4CCC(=O)NC4=O)C5=O)CC3)CC2)ccc1Nc1ncc(Cl)c(Nc2ccccc2P(C)(C)=O)n1` (centres unmarked) [Compound C196, 3-(5-(10-(4-(1-(4-((5-chloro-4-((2-(dimethylphosphoryl)phenyl)amino)pyrimidin-2-yl)amino)-3-methoxyphenyl)piperidin-4-yl)piperazin-1-yl)dec-1-yn-1-yl)-1-oxoisoindolin-2-yl)piperidine-2,6-dione]: the GI50 in experiment [1] and in experiment [2] was 1 to 100 nM each time.

In the case of `COc1cc(N2CCC3(CCN(CCCCCCCOc4cccc5c4CN(C4CCC(=O)NC4=O)C5=O)CC3)CC2)c(C)cc1Nc1ncc(Br)c(Nc2ccc3nccnc3c2P(C)(C)=O)n1` (centres unmarked) [Compound C211, 3-(4-((7-(9-(4-((5-bromo-4-((5-(dimethylphosphoryl)quinoxalin-6-yl)amino)pyrimidin-2-yl)amino)-5-methoxy-2-methylphenyl)-3,9-diazaspiro[5.5]undecan-3-yl)heptyl)oxy)-1-oxoisoindolin-2-yl)piperidine-2,6-dione], the GI50 in experiment [1] and in experiment [2] was 1 to 100 nM throughout.

For `COc1cc(N2CCC3(CCN(CCOCC#Cc4cc(F)cc5c4CN(C4CCC(=O)NC4=O)C5=O)CC3)CC2)c(C)cc1Nc1ncc(Br)c(Nc2ccc3nccnc3c2P(C)(C)=O)n1` (centres unmarked) [Compound C310, 3-(4-(3-(2-(9-(4-((5-bromo-4-((5-(dimethylphosphoryl)quinoxalin-6-yl)amino)pyrimidin-2-yl)amino)-5-methoxy-2-methylphenyl)-3,9-diazaspiro[5.5]undecan-3-yl)ethoxy)prop-1-yn-1-yl)-6-fluoro-1-oxoisoindolin-2-yl)piperidine-2,6-dione], the GI50 in experiment [1] and in experiment [2] was 1 to 100 nM each time.
